# Data taken from patent publication US9212161B2, “Chiral synthesis of pyrrolidine core compounds en route to neuronal nitric oxide synthase inhibitors” (Northwestern University, priority 2010, dated 2015).
# Tested on: rabbit fetuses
# Assay: animal tests, rabbit fetuses under hypoxic conditions
# Type: in vivo
smiles,measurement,value
Cc1cc(N)nc(C[C@@H]2CNC[C@@H]2OCCNCCc2cccc(F)c2)c1 [Compound 1],neurological damage to rabbit fetuses,remarkable reduction in neurological damage
